Laboratory results as given in patent US4521335A, “Aglycone and pseudo-aglycones of the AAD 216 antibiotics” (SmithKline Beckman Corporation, priority 1984, dated 1985).
≈ marks a conversion by molar mass, not a printed value.

Tests used:
[1] = system: Strep. faecilis HH34358; assay: MIC, standard microtiter assay; assay type: cell-based
[2] = system: Proteus mirabilis SK & F 444; assay: MIC, standard microtiter assay; assay type: cell-based
[3] = system: k. pneumoniae 4200 (SK & F 798); assay: MIC, standard microtiter assay; assay type: cell-based; details: Klebsiella pneumoniae
[4] = system: Pseudomonas aeruginosa HH63; assay: MIC, standard microtiter assay; assay type: cell-based
[5] = system: Serratia marcesens ATCC 13880; assay: MIC, standard microtiter assay; assay type: cell-based; details: ATCC13880
[6] = system: Proteus morgani SK & F 179; assay: MIC, standard microtiter assay; assay type: cell-based
[7] = system: Salmonella gallinarum SK & F BC595; assay: microbe, parasite or virus in culture; assay type: cell-based; details: Salmonella enterica
[8] = system: Listeria monocytogenes SK & F 2255; assay: MIC, standard microtiter assay; assay type: cell-based
[9] = system: Staph. aureus SK & F 1761; assay: MIC, standard microtiter assay; assay type: cell-based; details: Staphylococcus aureus
[10] = system: Staph. aureus SK & F 2678; assay: MIC, standard microtiter assay; assay type: cell-based; details: Staphylococcus aureus
[11] = system: Staph. aureus SK & F 2680; assay: MIC, standard microtiter assay; assay type: cell-based; details: Staphylococcus aureus
[12] = system: Staph. aureus SK & F 2682; assay: MIC, standard microtiter assay; assay type: cell-based; details: Staphylococcus aureus
[13] = system: Staph. aureus SK & F 2743; assay: MIC, standard microtiter assay; assay type: cell-based; details: Staphylococcus aureus
[14] = system: Staph. aureus SK & F 2614; assay: MIC, standard microtiter assay; assay type: cell-based; details: Staphylococcus aureus
[15] = system: Staph. aureus SK & F 2620; assay: MIC, standard microtiter assay; assay type: cell-based; details: Staphylococcus aureus
[16] = system: Staph. aureus SK & F 2589; assay: MIC, standard microtiter assay; assay type: cell-based; details: Staphylococcus aureus
[17] = system: Staph. aureus SK & F 2593; assay: MIC, standard microtiter assay; assay type: cell-based; details: Staphylococcus aureus
[18] = system: Staph. aureus SK & F 2596; assay: MIC, standard microtiter assay; assay type: cell-based; details: Staphylococcus aureus
[19] = system: Bacteroides fragilis ATCC 25285; assay: MIC, standard microtiter assay; assay type: cell-based; details: ATCC25285
[20] = system: B. fragilis H145; assay: MIC, standard microtiter assay; assay type: cell-based; details: Bacteroides fragilis
[21] = system: B. fragilis SK & F 3060; assay: MIC, standard microtiter assay; assay type: cell-based; details: Bacteroides fragilis
[22] = system: B. loeochis SK & F 3087; assay: MIC, standard microtiter assay; assay type: cell-based; details: Table D, Anaerobes
Excerpt: The AAD 216 aglycone, the AAD 216 pseudo-aglycone, the AAD 216A pseudo-aglycone, the AAD 216B pseudo-aglycone and the AAD 216C pseudo-aglycone were neutralized with sodium bicarbonate prior to testing.

[23] = system: Fusobacterium nucleatum ATCC 25586; assay: MIC, standard microtiter assay; assay type: cell-based
[24] = system: C. perfringens MCP-2; assay: microbe, parasite or virus in culture; assay type: cell-based; details: Clostridium perfringens
[25] = system: C. perfringens ATCC 19408; assay: microbe, parasite or virus in culture; assay type: cell-based; details: Clostridium perfringens, ATCC19408
[26] = system: C. difficile SK & F 3065; assay: MIC, standard microtiter assay; assay type: cell-based; details: Clostridioides difficile
[27] = system: C. difficile SK & F 3091; assay: MIC, standard microtiter assay; assay type: cell-based; details: Clostridioides difficile
[28] = system: C. difficile SK & F 3092; assay: MIC, standard microtiter assay; assay type: cell-based; details: Clostridioides difficile
[29] = system: C. difficile SK & F 3098; assay: MIC, standard microtiter assay; assay type: cell-based; details: Clostridioides difficile
[30] = system: Staph. aureus SK & F 209P-mutant; assay: microbe, parasite or virus in culture; assay type: cell-based; details: Staphylococcus aureus
[31] = system: Staph. epidermidis SK & F 2265; assay: MIC, standard microtiter assay; assay type: cell-based; details: Staphylococcus epidermidis
[32] = system: Strep. faecalis SK & F 657; assay: MIC, standard microtiter assay; assay type: cell-based; details: Enterococcus faecalis
[33] = system: E. coli SK & F 12140; assay: MIC, standard microtiter assay; assay type: cell-based; details: Escherichia coli
[34] = system: Salmonella gallinarum BC-595; assay: microbe, parasite or virus in culture; assay type: cell-based; details: Salmonella enterica
[35] = system: Bacteroides Fragilis ATCC; assay: MIC, standard microtiter assay; assay type: cell-based
[36] = system: B. thetaiotomicron H-145; assay: MIC, standard microtiter assay; assay type: cell-based
[37] = system: C. perfringens SK & F 2769; assay: microbe, parasite or virus in culture; assay type: cell-based; details: Clostridium perfringens
[38] = system: C. difficile SK & F 3141; assay: MIC, standard microtiter assay; assay type: cell-based; details: Clostridioides difficile
[39] = system: Staph. aureus HH 127; assay: in vivo activity against intraperitoneal infections in mice; parameters: species or system mice infected with Staph. aureus; details: Staphylococcus aureus, HH127, sc
[40] = system: inoculum (ileal or cecal cannula filtrate); assay: swine in vitro model, growth promotant activity; details: experiment I, 5 hours, 37° C.; for GLU (% Control): glucose; for LAC (% Control): lactic acid; for LYS (% Control): lysine; for VFA (% Control): total volatile fatty acids

CN[C@H](CC(C)C)C(=O)N[C@H]1C(=O)N[C@@H](CC(N)=O)C(=O)N[C@H]2C(=O)N[C@H]3C(=O)N[C@H](C(=O)N[C@H](C(=O)O)c4cc(O)cc(O)c4-c4cc3ccc4O)[C@H](O)c3ccc(c(Cl)c3)Oc3cc2cc(c3O[C@@H]2O[C@H](CO)[C@@H](O)[C@H](O)[C@H]2O[C@H]2C[C@](C)(N)[C@H](O)[C@H](C)O2)Oc2ccc(cc2Cl)[C@H]1O [Vancomycin, vancomycin]
MIC [1]: 3.1 µg/mL (≈ 2.14 µM) | MIC [2]: 100 µg/mL (≈ 69 µM) | MIC [3]: > 100 µg/mL | MIC [4]: > 100 µg/mL | MIC [5]: > 100 µg/mL | MIC [6]: > 100 µg/mL | MIC [7]: 25 µg/mL (≈ 17.3 µM) | MIC ([8]; Table A): 1.6 µg/mL (≈ 1.1 µM) | MIC ([8]; Table E): 0.8 µg/mL (≈ 0.552 µM) | MIC [9]: 1.6 µg/mL (≈ 1.1 µM) | MIC [10]: 1.6 µg/mL (≈ 1.1 µM) | MIC [11]: 1.6 µg/mL (≈ 1.1 µM) | MIC [12]: 1.6 µg/mL (≈ 1.1 µM) | MIC [13]: 1.6 µg/mL (≈ 1.1 µM) | MIC [14]: 1.6 µg/mL (≈ 1.1 µM) | MIC [15]: 3.1 µg/mL (≈ 2.14 µM) | MIC [16]: 1.6 µg/mL (≈ 1.1 µM) | MIC [17]: 1.6 µg/mL (≈ 1.1 µM) | MIC [18]: 3.1 µg/mL (≈ 2.14 µM) | MIC [19]: 32 µg/mL (≈ 22.1 µM) | MIC [20]: 32 µg/mL (≈ 22.1 µM) | MIC [21]: 32 µg/mL (≈ 22.1 µM) | MIC [22]: 32 µg/mL (≈ 22.1 µM) | MIC ([23]; Fusobacterium nucleatum, ATCC25586): 32 µg/mL (≈ 22.1 µM) | MIC ([23]; Table F, Fusobacterium nucleatum ATCC 25586): 32 µg/mL (≈ 22.1 µM) | MIC ([24]; MCP2, Table D, Anaerobes): 0.5 µg/mL (≈ 0.345 µM) | MIC ([24]; MCP2, Table F): 2 µg/mL (≈ 1.38 µM) | MIC [25]: 1 µg/mL (≈ 0.69 µM) | MIC ([26]; Table D, Anaerobes): 4 µg/mL (≈ 2.76 µM) | MIC ([26]; Table F): 1 µg/mL (≈ 0.69 µM) | MIC [27]: 2 µg/mL (≈ 1.38 µM) | MIC ([28]; Table D, Anaerobes): 2 µg/mL (≈ 1.38 µM) | MIC ([28]; Table F): 0.5 µg/mL (≈ 0.345 µM) | MIC [29]: 2 µg/mL (≈ 1.38 µM) | MIC [30]: 100 µg/mL (≈ 69 µM) | MIC [31]: 3.1 µg/mL (≈ 2.14 µM) | MIC [32]: 3.1 µg/mL (≈ 2.14 µM) | MIC [33]: > 100 µg/mL | MIC [34]: > 100 µg/mL | MIC [35]: > 32 µg/mL | MIC [36]: > 32 µg/mL | MIC [37]: 0.5 µg/mL (≈ 0.345 µM) | MIC [38]: 1 µg/mL (≈ 0.69 µM) | ED50 ([39]; i.p. infection 46.8 LD50's Staph. aureus HH 127, s.c. 1 and 5 hours post infection): 1.56 mg/kg | ED50 ([39]; second test, similar protocol, s.c.): 1.92 mg/kg | GLU (% Control) ([40]; 1.67 ppm): 100 % Control | LAC (% Control) ([40]; 1.67 ppm): 99 % Control | LYS (% Control) ([40]; 1.67 ppm): 83 % Control | VFA (% Control) ([40]; 1.67 ppm): 92 % Control | GLU (% Control) ([40]; 16.67 ppm): 189 % Control | LAC (% Control) ([40]; 16.67 ppm): 59 % Control | LYS (% Control) ([40]; 16.67 ppm): 42 % Control | VFA (% Control) ([40]; 16.67 ppm): 280 % Control | GLU (% Control) ([40]; 166.67 ppm): 190 % Control | LAC (% Control) ([40]; 166.67 ppm): 64 % Control | LYS (% Control) ([40]; 166.67 ppm): 48 % Control | VFA (% Control) ([40]; 166.67 ppm): 250 % Control
